# How the values were obtained:
# [1] = biological target: T1, IRE1α endonuclease (Rattus norvegicus, UniProt A0A4Y1YQ52); assay: XBP1 splicing assay in VSMCs; format: cell-based
# T1 construct: endogenous in cells; host or cells: primary aortic vascular smooth muscle cells from 5-week old WKY rats
# Description: VSMCs were treated with tunicamycin (1 μg/ml) and either 4μ8c (30 μM) or STF-083010 (60 μM) for 6 h or 24 h. (A) Agarose gel for assessment of XBP1 splicing after 6 h of treatment with tunicamycin and densitometric quantification. (B) Western blot for assessment of ER chaperone expression after 24 h tunicamycin treatment with or without inhibition of IRE1α by 4μ8c. Data is presented as mean±SEM. *, p<0.05 vs. Vehicle; #, p<0.05 vs. Tm.
# VSMCs were cultured in DMEM/F12 containing 1% FBS. Confluent cells were treated with L-ascorbic acid-2-phosphate (100 μg/ml) and either TGF-β1 (5 ng/ml) or Ang II (1 μM). (A) Agarose gel for assessment of TGF-β1-induced XBP1 splicing in VSMCs after 24 h. (B) Picro-Sirius Red assay for measurement of collagen deposition induced by combined TGF-β1 and AA2P treatment after 72 h, and inhibition by 4μ8c and STF-083010. (C) Western blot for assessment of collagen chaperone expression after treatment of TGF-β1 and 4μ8c for 48 h. *, p<0.05. (D) Measurement of Ang II-induced collagen production and inhibition by 4μ8c and STF-083010 after 72 h.
# VSMCs were isolated from the aortas of 5-week old WKY rats using the explant method^29. The thoracic aorta was removed from the animal and placed in ice-cold 5× Antibiotics-Antimycotics solution (ThermoFisher). The adventitia was gently removed and the aorta was cut longitudinally. The endothelial layer was removed by gentle scraping with forceps. […]
# (§1) Total RNA was extracted from cultured cells and rat tissues using the TRIzol reagent (ThermoFisher) according to manufacturer's instructions. RNA concentration and purity were measured using a Nanodrop ND-1000 spectrophotometer (NanoDrop Technologies, Inc.). […]
# Aortic VSMCs were isolated from normotensive WKY rats and used for in vitro experiments. […] To test the ability of these compounds to block the IRE1α endonuclease, XBP1 splicing was measured in VSMCs treated with the ER stress inducer tunicamycin for 6 h with or without pre-treatment by 4μ8c or STF-083010. […]
# [2] = system: spliced XBP1, GRP78, PDI; assay: Aortic collagen chaperone and ER stress marker expression (qRT-PCR, Western blot) in L-NAME-treated SHRs; format: in vivo, rat
# Description: 12-14 week old male SHRs were randomized to receive vehicle, L-NAME (50 mg/L) or L-NAME and 4μ8c (2.5 mg/kg/day i.p.) for 18 days. Total RNA was extracted from flash frozen aortic tissues. (A) qRT-PCR was used to assess relative mRNA expression of spliced XBP1 and GRP78. 18S was used as a housekeeping gene. (B) Protein levels of PDI and GRP78 were assessed by western blotting and normalized to β-actin. Data is presented as mean±SEM. *, p<0.05 vs. NT. #, p<0.05 vs L-NAME.
# 12-14 week old male SHRs were used to determine the effect of pharmacological IRE1α inhibition on L-NAME-induced vascular stiffening. They were maintained on a 12-hour light-dark cycle with rat chow and water ad libitium. Animals were implanted with radio-telemetry devices (Data Science International, St. Paul, Minn., USA) one week before the start of the study. Animals were randomized into one of three groups (n=6 per group): 1) No treatment, 2) L-NAME (50 mg/L in drinking water, Sigma-Aldrich), or 3) L-NAME+4μ8c (2.5 mg/kg/day i.p., Millipore). 4μ8c was administered in a vehicle of 10% DMSO, 10% Tween-80 and 80% normal saline. Animals in Group 2 received daily injections of the vehicle. All animals were fed a normal chow diet. At 18 days, animals were sacrificed, organs were harvested and the aorta was collected for mechanical and structural analysis. All animal work was performed according to the guidelines approved by the McMaster University Animal Research Ethics Board.
# as §1
# For qRT-PCR, cDNA was amplified using the Fast SYBR Green Master Mix (ThermoFisher) and analyzed with 7500 Software. […]
# Cells were lysed in 1× Laemmli buffer and protein content was quantified using the BioRad DC Protein Assay (BioRad, Mississauga, Canada). […]
# T1 sequence (A0A4Y1YQ52 21-977): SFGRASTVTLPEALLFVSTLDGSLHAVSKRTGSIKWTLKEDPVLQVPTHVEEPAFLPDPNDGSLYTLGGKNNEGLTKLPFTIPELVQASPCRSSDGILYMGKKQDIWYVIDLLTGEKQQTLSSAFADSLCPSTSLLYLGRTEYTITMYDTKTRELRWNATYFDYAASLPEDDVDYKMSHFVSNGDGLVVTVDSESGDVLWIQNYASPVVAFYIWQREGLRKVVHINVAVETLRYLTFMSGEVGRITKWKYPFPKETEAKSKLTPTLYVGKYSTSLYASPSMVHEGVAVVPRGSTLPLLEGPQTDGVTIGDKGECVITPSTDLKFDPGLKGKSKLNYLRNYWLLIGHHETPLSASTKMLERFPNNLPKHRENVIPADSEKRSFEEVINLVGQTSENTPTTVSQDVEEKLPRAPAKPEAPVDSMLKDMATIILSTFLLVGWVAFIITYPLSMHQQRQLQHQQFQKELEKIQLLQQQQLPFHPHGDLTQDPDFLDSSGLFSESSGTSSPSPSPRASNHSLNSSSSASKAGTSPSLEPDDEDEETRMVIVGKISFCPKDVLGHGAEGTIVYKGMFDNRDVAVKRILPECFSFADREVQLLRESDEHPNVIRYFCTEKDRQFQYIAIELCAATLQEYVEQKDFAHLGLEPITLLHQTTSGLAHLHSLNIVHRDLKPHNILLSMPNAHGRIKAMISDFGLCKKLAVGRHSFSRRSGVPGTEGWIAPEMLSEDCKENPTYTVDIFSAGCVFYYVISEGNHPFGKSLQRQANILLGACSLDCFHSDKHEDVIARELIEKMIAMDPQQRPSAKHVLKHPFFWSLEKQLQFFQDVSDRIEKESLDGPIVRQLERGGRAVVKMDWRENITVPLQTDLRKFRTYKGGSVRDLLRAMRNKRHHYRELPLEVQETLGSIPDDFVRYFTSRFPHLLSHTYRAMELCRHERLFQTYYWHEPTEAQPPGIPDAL
smiles,measurement,setting,value
"Cc1cc(=O)oc2c(C=O)c(O)ccc12 [4μ8c, 7-Hydroxy-4-methyl-2-oxo-2H-chromene-8-carbaldehyde]",TGF-β1 induced XBP1 splicing,"[1]; TGF-β1 (5 ng/ml) 24 h, co-treatment, FIG. 2A",blocked
same,spliced-to-unspliced XBP1 ratio,"[1]; tunicamycin (1 μg/ml) 6 h, 4μ8c 30 μM or STF-083010 60 μM, FIG. 1A",reduced
same,GRP78 protein in the aorta,"[2]; L-NAME+4μ8c group compared to the other two groups, Western blot",significantly decreased
same,PDI protein expression in the aorta,"[2]; L-NAME+4μ8c group vs L-NAME group, Western blot",significantly decreased
same,Spliced XBP1 and GRP78 mRNA expression in the aorta,"[2]; L-NAME+4μ8c group vs L-NAME group, qRT-PCR, FIG. 6A",reduced

# From patent US20190038597A1, “PREVENTION OF VASCULAR AND CARDIAC FIBROSIS VIA IRE1ALPHA INHIBITION” (McMaster University, priority 2017, published 2019)
